Laboratory results reported in ChEMBL document CHEMBL5096219, “Design, synthesis and biological evaluation of novel pyrazinone derivatives as PI3K/HDAC dual inhibitors” (Bioorg Med Chem, 2022).
Blank lines part the entries; values can stand above or below the compound they belong to.

How the values were obtained:
[1] = biological target: T1, Protein deacetylase HDAC6 (Homo sapiens, UniProt Q9UBN7); experiment: Inhibition of HDAC6 (unknown origin)
T1 sequence (Q9UBN7 whole entry): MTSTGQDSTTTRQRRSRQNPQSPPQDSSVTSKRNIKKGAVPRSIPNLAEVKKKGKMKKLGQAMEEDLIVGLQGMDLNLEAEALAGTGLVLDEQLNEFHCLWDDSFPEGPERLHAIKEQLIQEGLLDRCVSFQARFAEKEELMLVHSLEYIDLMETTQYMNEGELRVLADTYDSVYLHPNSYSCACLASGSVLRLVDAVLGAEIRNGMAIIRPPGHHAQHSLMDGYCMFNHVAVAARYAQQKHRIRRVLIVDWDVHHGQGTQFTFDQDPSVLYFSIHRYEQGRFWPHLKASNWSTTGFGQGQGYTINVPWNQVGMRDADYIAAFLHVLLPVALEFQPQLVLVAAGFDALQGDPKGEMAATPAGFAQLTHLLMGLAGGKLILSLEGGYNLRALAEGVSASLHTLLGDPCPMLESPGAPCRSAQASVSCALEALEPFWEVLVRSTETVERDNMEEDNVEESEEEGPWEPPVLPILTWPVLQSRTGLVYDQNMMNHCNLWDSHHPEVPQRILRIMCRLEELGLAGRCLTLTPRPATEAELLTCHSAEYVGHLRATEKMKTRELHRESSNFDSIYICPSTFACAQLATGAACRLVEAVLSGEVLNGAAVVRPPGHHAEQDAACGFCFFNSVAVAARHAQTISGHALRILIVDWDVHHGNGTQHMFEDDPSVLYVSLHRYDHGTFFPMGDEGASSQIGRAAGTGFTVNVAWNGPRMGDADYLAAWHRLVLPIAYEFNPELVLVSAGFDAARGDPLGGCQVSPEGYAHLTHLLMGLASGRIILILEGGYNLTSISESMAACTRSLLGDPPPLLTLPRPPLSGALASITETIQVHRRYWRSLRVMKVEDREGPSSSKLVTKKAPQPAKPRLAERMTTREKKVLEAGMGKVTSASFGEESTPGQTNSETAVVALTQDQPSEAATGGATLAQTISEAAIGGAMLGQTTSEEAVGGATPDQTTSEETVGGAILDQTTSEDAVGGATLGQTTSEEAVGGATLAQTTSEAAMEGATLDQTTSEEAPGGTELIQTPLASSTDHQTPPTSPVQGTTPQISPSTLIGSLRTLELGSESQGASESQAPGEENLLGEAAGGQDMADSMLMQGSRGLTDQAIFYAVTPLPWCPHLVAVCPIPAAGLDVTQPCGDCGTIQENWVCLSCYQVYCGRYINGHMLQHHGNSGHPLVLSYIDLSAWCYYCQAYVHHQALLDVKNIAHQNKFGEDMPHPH

[2] = biological target: Phosphatidylinositol 4,5-bisphosphate 3-kinase catalytic subunit alpha isoform (Homo sapiens, UniProt P42336); experiment: Inhibition of PI3Kalpha (unknown origin) by mobility shift assay
Sequence of Phosphatidylinositol 4,5-bisphosphate 3-kinase catalytic subunit alpha isoform (P42336 whole entry, canonical isoform): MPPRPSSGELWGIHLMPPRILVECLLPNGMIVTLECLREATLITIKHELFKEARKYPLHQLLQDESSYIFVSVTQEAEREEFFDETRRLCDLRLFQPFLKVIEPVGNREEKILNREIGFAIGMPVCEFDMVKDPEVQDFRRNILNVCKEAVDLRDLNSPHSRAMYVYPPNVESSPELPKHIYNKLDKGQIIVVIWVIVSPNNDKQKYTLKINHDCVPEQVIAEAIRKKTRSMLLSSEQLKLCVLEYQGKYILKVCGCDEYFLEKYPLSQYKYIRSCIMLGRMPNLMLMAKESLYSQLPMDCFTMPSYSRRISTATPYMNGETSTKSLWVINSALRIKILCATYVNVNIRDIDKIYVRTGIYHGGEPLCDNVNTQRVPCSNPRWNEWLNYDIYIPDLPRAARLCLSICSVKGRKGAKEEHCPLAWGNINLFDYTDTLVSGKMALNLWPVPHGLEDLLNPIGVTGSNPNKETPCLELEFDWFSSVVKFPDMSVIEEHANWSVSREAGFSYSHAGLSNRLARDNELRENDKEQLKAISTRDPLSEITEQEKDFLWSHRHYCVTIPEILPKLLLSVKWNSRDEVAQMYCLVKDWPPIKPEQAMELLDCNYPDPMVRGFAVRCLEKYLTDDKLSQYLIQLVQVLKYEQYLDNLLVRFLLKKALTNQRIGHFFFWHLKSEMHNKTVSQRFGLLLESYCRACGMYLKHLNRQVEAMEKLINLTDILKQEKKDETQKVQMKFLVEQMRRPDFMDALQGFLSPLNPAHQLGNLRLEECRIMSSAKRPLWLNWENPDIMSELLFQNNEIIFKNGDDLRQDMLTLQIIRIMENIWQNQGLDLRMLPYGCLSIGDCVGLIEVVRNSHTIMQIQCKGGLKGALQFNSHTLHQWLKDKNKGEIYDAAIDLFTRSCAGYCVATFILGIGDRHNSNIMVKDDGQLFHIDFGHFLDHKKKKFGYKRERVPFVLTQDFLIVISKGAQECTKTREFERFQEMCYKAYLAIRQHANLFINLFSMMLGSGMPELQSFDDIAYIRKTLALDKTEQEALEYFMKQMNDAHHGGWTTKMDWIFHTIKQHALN

HL-60 = experiment: cells; assay type: functional, cell-based; details: Homo sapiens, HL-60, 72 h
Description: Antiproliferative activity against human HL-60 cells assessed as inhibition of cell proliferation incubated for 72 hrs by CCK8 assay

K562 = experiment: cells; assay type: functional, cell-based; details: Homo sapiens, K562, 72 h
Description: Antiproliferative activity against human K562 cells assessed as inhibition of cell proliferation incubated for 72 hrs by CCK8 assay

[3] = biological target: T2, Protein deacetylase HDAC6 (Homo sapiens) (UniProt Q9UBN7); details: dose 100.0 nM
T2 sequence (whole entry): T1 sequence (Q9UBN7 whole entry)
Description: Inhibition of HDAC6 (unknown origin) at 100 nM

MV4-11 [4] = experiment: cells; assay type: functional, cell-based; details: Homo sapiens, MV4-11, 72 h
Description: Antiproliferative activity against human MV4-11 cells assessed as inhibition of cell proliferation incubated for 72 hrs by CCK8 assay

MV4-11 [5] = experiment: Induction of apoptosis in human MV4-11 cells assessed as necrotic cells at 1 uM incubated for 48 hrs by Annexin V-FITC/PI staining based flow cytometry (reference value: 0.51%); assay type: functional
MV4-11 [6] = experiment: Induction of apoptosis in human MV4-11 cells assessed as early apoptotic cells at 1 uM incubated for 48 hrs by Annexin V-FITC/PI staining based flow cytometry (reference value: 0.95%); assay type: functional
MV4-11 [7] = experiment: Induction of apoptosis in human MV4-11 cells assessed as late apoptotic cells at 1 uM incubated for 48 hrs by Annexin V-FITC/PI staining based flow cytometry (reference value: 2.04%); assay type: functional
MV4-11 [8] = experiment: Induction of cell cycle arrest in human MV4-11 cells assessed as accumulation of cells at G0/G1 phase at 1 uM incubated for 48 hrs by […]PI staining based flow cytometry (reference value: 33.1%); assay type: functional
MV4-11 [9] = experiment: Induction of cell cycle arrest in human MV4-11 cells assessed as accumulation of cells at G2/M phase at 1 uM incubated for 48 hrs by […]PI staining based flow cytometry (reference value: 11.5%); assay type: functional
MV4-11 [10] = experiment: Induction of apoptosis in human MV4-11 cells assessed as viable cells at 1 uM incubated for 48 hrs by Annexin V-FITC/PI staining based flow cytometry (reference value: 96.5%); assay type: functional; details: read-out: Activity
MV4-11 [11] = experiment: Induction of cell cycle arrest in human MV4-11 cells assessed as accumulation of cells at S phase at 1 uM incubated for 48 hrs by […]PI staining based flow cytometry (reference value: 45.5%); assay type: functional

SMILES: Cc1noc(C)c1-c1cn(Cc2ccc(C(=O)NO)cc2)c(=O)c(N2CCOCC2)n1
IC50 [1]: 32 nM

SMILES: O=C(NO)c1ccc(Cn2cc(-c3cccc(O)c3)nc(N3CCOCC3)c2=O)cc1
IC50 [2]: 467 nM
IC50 (HL-60): 1140 nM
IC50 (K562): 3840 nM
IC50 [1]: 23 nM
inhibition [3]: 94%
IC50 (MV4-11 [4]): 90 nM

SMILES: O=C(NO)c1ccc(Cn2cc(-c3ccc(CO)cc3)nc(N3CCOCC3)c2=O)cc1
IC50 [1]: 15 nM

SMILES: O=C(NO)c1ccc(Cn2cc(-c3cncnc3)nc(N3CCOCC3)c2=O)cc1
IC50 [1]: 35 nM
inhibition [3]: 69%

SMILES: Nc1ccc(-c2cn(Cc3ccc(C(=O)NO)cc3)c(=O)c(N3CCOCC3)n2)cn1
IC50 [1]: 12 nM
inhibition [3]: 91%

SMILES: O=C(CCCCCCC(=O)Nc1ccccc1)NO [VORINOSTAT]
Activity (MV4-11 [5]): 0.93%
Activity (MV4-11 [6]): 9.99%
Activity (MV4-11 [7]): 12.9%
Activity (MV4-11 [8]): 43.2%
Activity (MV4-11 [9]): 28.6%
viability at 1 µM (MV4-11 [10]): 76.1%
Activity (MV4-11 [11]): 5.62%

SMILES: O=C(NO)c1ccc(Cn2cc(-c3ccc(O)cc3)nc(N3CCOCC3)c2=O)cc1
IC50 [1]: 14 nM
inhibition [3]: 94%

SMILES: CN1CCN(c2nc(-c3cnc(N)nc3)cn(Cc3ccc(C(=O)NO)cc3)c2=O)CC1
IC50 [1]: 4.2 nM

SMILES: O=C(NO)c1ccc(Cn2cc(-c3cccc(CO)c3)nc(N3CCOCC3)c2=O)cc1
IC50 (HL-60): 580 nM
IC50 (K562): 590 nM
IC50 [1]: 14 nM
IC50 (MV4-11 [4]): 70 nM

SMILES: Nc1ccc(-c2cn(Cc3ccc(C(=O)NO)cc3)c(=O)c(N3CCOCC3)n2)cc1
IC50 [1]: 13 nM
inhibition [3]: 101%

SMILES: CCCn1cc(-c2cnc(N)nc2)nc(N2CCOCC2)c1=O
IC50 [2]: 25 nM

SMILES: Nc1cc(C(F)(F)F)c(-c2cc(N3CCOCC3)nc(N3CCOCC3)n2)cn1 [BUPARLISIB]
Activity (MV4-11 [5]): 3.19%
Activity (MV4-11 [6]): 1.37%
IC50 (HL-60): 1510 nM
IC50 (K562): 730 nM
Activity (MV4-11 [7]): 6.42%
Activity (MV4-11 [8]): 48.1%
Activity (MV4-11 [9]): 9.96%
viability at 1 µM (MV4-11 [10]): 89%
Activity (MV4-11 [11]): 34.7%
IC50 (MV4-11 [4]): 730 nM

SMILES: O=C(NO)c1ccc(Cn2cc(-c3ccoc3)nc(N3CCOCC3)c2=O)cc1
IC50 [1]: 7.9 nM

SMILES: CNc1ncc(-c2cn(Cc3ccc(C(=O)NO)cc3)c(=O)c(N3CCOCC3)n2)cn1
IC50 [2]: 336 nM
IC50 (HL-60): 4290 nM
IC50 (K562): 6120 nM
IC50 [1]: 9.1 nM
IC50 (MV4-11 [4]): 1370 nM

SMILES: COC1CCN(c2nc(-c3cnc(N)nc3)cn(Cc3ccc(C(=O)NO)cc3)c2=O)CC1
IC50 [1]: 7.4 nM

More lines, in order of falling IC50 [1], values ahead:

IC50 [1]: 650 nM
SMILES: Nc1ncc(-c2cn(Cc3cccc(C(=O)NO)c3)c(=O)c(N3CCOCC3)n2)cn1

IC50 [2]: 278 nM
IC50 (HL-60): 9870 nM
IC50 (K562): 4560 nM
IC50 [1]: 194 nM
inhibition [3]: 27%
IC50 (MV4-11 [4]): 1520 nM
SMILES: Nc1ncc(-c2cn(CCCCCCCC(=O)NO)c(=O)c(N3CCOCC3)n2)cn1

IC50 [2]: 157 nM
IC50 (HL-60): 12700 nM
IC50 (K562): > 50000 nM
IC50 [1]: 109 nM
inhibition [3]: 45%
IC50 (MV4-11 [4]): 19700 nM
SMILES: Nc1ncc(-c2cn(CCCCCC(=O)NO)c(=O)c(N3CCOCC3)n2)cn1

IC50 [2]: 127 nM
IC50 (HL-60): 18400 nM
IC50 (K562): 3840 nM
IC50 [1]: 54 nM
inhibition [3]: 73%
IC50 (MV4-11 [4]): 1980 nM
SMILES: Nc1ncc(-c2cn(CCCCCCC(=O)NO)c(=O)c(N3CCOCC3)n2)cn1

IC50 [1]: 30 nM
SMILES: O=C(NO)c1ccc(Cn2cc(-c3cn[nH]c3)nc(N3CCOCC3)c2=O)cc1

IC50 [1]: 21 nM
SMILES: Cn1cc(-c2cn(Cc3ccc(C(=O)NO)cc3)c(=O)c(N3CCOCC3)n2)cn1

IC50 [1]: 20 nM
inhibition [3]: 95%
SMILES: Nc1ncc(-c2cc(N3CCOCC3)c(=O)n(Cc3ccc(C(=O)NO)cc3)c2)cn1

IC50 [2]: 197 nM
IC50 (HL-60): 21000 nM
IC50 (K562): 13800 nM
IC50 [1]: 15 nM
inhibition [3]: 92%
IC50 (MV4-11 [4]): 4850 nM
SMILES: Nc1ncc(-c2cn(Cc3ccc(C(=O)NO)cc3)c(=O)c(N3CCOCC3)n2)cn1

IC50 [1]: 15 nM
inhibition [3]: 92%
SMILES: O=C(NO)c1ccc(Cn2cc(-c3cccnc3)nc(N3CCOCC3)c2=O)cc1

IC50 [1]: 13 nM
inhibition [3]: 94%
SMILES: Nc1ncc(-c2cc(N3CCOCC3)c(=O)n(Cc3ccc(C(=O)NO)cc3)n2)cn1

IC50 [1]: 6.9 nM
SMILES: Nc1ncc(-c2cn(Cc3ccc(C(=O)NO)cc3)c(=O)c(Nc3ccccc3)n2)cn1

IC50 [1]: 4.2 nM
SMILES: Nc1ncc(-c2cn(Cc3ccc(C(=O)NO)cc3)c(=O)c(N3CCCCC3)n2)cn1
